Values quoted from earlier work as cited in patent US20200289459A1, “LIQUID DOSAGE FORMS, METHODS OF MAKING AND USE” (CANOPY GROWTH CORPORATION, priority 2017, published 2020).

Key:
[1] = test system: α2-adrenergic receptor
[2] = test system: locomotor suppression, catalepsy, hypothermia and analgesia; conditions: up to 80 mg/kg
[3] = target: T1, 5-HT1A receptor (Homo sapiens, UniProt P08908)
T1 sequence (P08908 1-422): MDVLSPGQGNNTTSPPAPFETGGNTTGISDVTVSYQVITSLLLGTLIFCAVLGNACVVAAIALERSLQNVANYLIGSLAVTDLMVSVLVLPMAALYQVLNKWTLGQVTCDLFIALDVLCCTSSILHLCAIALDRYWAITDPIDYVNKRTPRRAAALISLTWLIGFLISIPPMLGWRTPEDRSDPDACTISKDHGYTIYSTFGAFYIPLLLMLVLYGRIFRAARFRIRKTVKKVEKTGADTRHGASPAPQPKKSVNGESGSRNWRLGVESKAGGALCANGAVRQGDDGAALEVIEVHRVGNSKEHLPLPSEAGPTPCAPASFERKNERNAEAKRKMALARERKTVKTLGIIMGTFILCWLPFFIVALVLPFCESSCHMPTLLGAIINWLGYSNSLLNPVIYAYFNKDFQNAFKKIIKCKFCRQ

[4] = target: CB1 receptor (Homo sapiens, UniProt P21554)
[5] = target: CB2 receptor (Homo sapiens, UniProt P34972)
Sequence of CB2 receptor (P34972 whole entry): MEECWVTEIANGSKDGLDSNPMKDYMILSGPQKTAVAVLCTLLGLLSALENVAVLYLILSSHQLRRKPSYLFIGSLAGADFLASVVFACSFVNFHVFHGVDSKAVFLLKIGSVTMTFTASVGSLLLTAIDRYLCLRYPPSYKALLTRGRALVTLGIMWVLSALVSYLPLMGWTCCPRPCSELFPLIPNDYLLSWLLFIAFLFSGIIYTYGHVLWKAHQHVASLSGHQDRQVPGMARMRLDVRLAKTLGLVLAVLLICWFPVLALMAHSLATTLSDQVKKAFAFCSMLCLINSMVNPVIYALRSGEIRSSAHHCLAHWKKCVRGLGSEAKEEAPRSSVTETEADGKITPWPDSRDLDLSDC

Sequence of CB1 receptor (P21554 whole entry): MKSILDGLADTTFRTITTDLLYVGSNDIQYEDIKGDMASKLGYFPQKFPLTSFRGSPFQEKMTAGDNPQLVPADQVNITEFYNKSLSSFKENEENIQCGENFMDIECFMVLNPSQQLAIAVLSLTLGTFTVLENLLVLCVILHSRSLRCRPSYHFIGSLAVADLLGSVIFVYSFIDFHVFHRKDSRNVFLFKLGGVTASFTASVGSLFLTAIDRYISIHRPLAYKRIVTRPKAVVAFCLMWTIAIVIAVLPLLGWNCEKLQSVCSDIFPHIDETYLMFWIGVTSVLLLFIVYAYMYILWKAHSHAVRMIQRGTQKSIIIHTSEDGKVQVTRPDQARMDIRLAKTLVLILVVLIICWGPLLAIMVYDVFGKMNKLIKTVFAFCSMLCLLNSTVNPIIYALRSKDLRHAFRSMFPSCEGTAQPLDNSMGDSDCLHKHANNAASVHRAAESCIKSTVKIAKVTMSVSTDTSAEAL

CCCCCc1cc(O)c(C/C=C(\C)CCC=C(C)C)c(O)c1 [CBG, Cannabigerol]
affinity as α2-adrenergic receptor agonist [1]: high affinity | effect in the mouse tetrad test of cannabimimetic activity [2]: without effect | affinity as 5-HT1A receptor antagonist [3]: moderate affinity | affinity as CB1 receptor antagonist [4]: low affinity | binding to the CB2 receptor [5]: antagonist
